Reference: patent EP1210336B1, “SUBSTITUTED BENZIMIDAZOLES AS NON-NUCLEOSIDE INHIBITORS OF REVERSE TRANSCRIPTASE” (THE UNITED STATES OF AMERICA, as represented by the …, priority 1999, dated 2001)
Like-named read-outs stand apart in the source and are kept apart here.

Columns and labels:
HIV-1 WT RT = molecular target: T1, HIV-1 WT RT (Human immunodeficiency virus type 1 group M subtype B, UniProt P03366); test: biochemical; settings: for IC50: read-out: IC50; for %inhibn (1µM) / inhibition at 1 µM: WT HIV-1 RT, 1 µM drug
T1 construct: purified RT protein (0.015 mg/mL) was incubated in a 100 µL reaction mixture

WT virus (NL4-3) = test: microbe, parasite or virus in culture; format: cell-based, HIV-1; settings: for EC50: read-out: EC50
Experimental: Evaluation of these compounds for the inhibition of HIV-1 was determined as the fifty percent cell culture inhibitory concentration (CIC50) in CEMSS cell culture with WT virus (NL4-3).
(§1) In this Example, the antiviral and cellular toxicity of NNRTIs was investigated, using the cytopathic cell killing assay described by Yang (Yang et al., "Characteristics of a Group of Non-nucleoside Reverse Transcriptase Inhibitors with Structural Diversity and Potent Anti-Human Immunodeficiency Virus Activity," Leukemia 9:S75-S85 [1995]). Briefly, in this method cells (e.g., the CEM-SS cell line, available from the NIAID AIDS Research and Reference Program [ARRRP]) were seeded at a density of 5 x 10^3 cells/well, into the wells of a 96-well microtiter plate. The cells were then infected with HIV virus (either mutant or WT), at a multiplicity of infection (MOI) previously determined to provide complete cell killing by 6 days of culture post-infection (e.g., MOI of 0.01-0.05). Each of the HIV isolates was pre-titered to induce equivalent levels of infection based on cell killing or virus production, prior to their use in these assays. A range of test compound concentrations was added to the wells in triplicate (e.g., serial half-log dilutions) to evaluate inhibition of HIV infection. Controls for each assay included drug controls (drug colorimetric control wells), drug cytotoxicity control wells (cells with drug), virus control wells (cells with virus), and cell viability controls (cells only). Positive control drugs (e.g., AZT and ddC) were also run in parallel.
(§2) After six days of incubation at 37°C, cell viability was determined spectrophotometrically at 450 nm for each well, using the metabolic reduction of XTT to a soluble colored formazan. (See, Gartner and Popovic, "Virus Isolation and Production, in Aldovini and Walker (eds.), Techniques in HIV Research, Stockton Press, NY, pp. […] [1991]; and Nara and Fischinger, "Quantitative Infectivity Assay for HIV-1 and HIV-2," Nature 332:469-470 [1988]).
(§3) The in vitro therapeutic index (TI50) was defined as the fold-difference between the EC50 and IC50. The results for the various compounds are included in Figures 8 and 19.

NL4-3 (WT) = test: Cytopathic cell killing assay, cross-resistance profile, infected MT-4 cells; format: cell-based, HIV-1
Text: (§4) The various HIV isolates tested in the Figures are those corresponding to wild-type virus (NL4-3) and the other strains listed by their RT mutations. The three 4xAZT isolates included in the Figures represent AZT drug-resistant variants. For example, the 4xAZT/L100I isolate has five mutations: four mutations confer increased resistance to AZT, and the other mutation is located within the NNRTI binding pocket. TZB and nevir. (nevirapine) are two well-known NNRTIs, included in this experiment for comparison purposes. […]
as §1, §2, §3

HIV-1 variant A98G = test: as above; format: cell-based; settings: Table 8; isolate A9SG; read-out: EC50
Text: as §4, §1, §2, §3

HIV-1 variant K101E = test: as above; format: cell-based
Text: as §4, §1, §2, §3

HIV-1 variant K103N = test: as above; format: cell-based; settings: isolate K103N
Text: as §4, §1, §2, §3

HIV-1 variant L100I = test: as above; format: cell-based
Text: as §4, §1, §2, §3

HIV-1 variant L74V = test: as above; format: cell-based; settings: Table 8; isolate 1.74V; read-out: EC50
Text: as §4, §1, §2, §3

HIV-1 variant V106A = test: as above; format: cell-based; settings: Table 8; isolate V 106A; read-out: EC50
Text: as §4, §1, §2, §3

HIV-1 variant V108I = test: as above; format: cell-based
Text: as §4, §1, §2, §3

HIV-1 variant V179D = test: as above; format: cell-based; settings: Table 8; isolate V179D; read-out: EC50
Text: as §4, §1, §2, §3

HIV-1 variant Y181C = test: as above; format: cell-based; settings: isolate Y181C
Text: as §4, §1, §2, §3

HIV-1 variant Y188C = test: as above; format: cell-based
Text: as §4, §1, §2, §3

[1] = Table 7, concentration reducing cell killing or virus production by 50%, HIV-1 WT
[2] = Table 11, CEMSS/NL4-3, NRVC = reduction in viral CPE not seen (footnote)
[3] = Table 10 (values in µM), isolate NL4-3 (WT), read-out: EC50
[4] = Table 10 (values in µM), read-out: EC50
[5] = Table 10 (values in µM), isolate L1001, read-out: EC50
[6] = Human immunodeficiency virus 1, MT4, Table 9
[7] = Human immunodeficiency virus 1, MT4, Table 10 (values in µM)

1-(2,6-difluorobenzyl)-2-(2,6-difluorophenyl)-4-acetamidobenzimidazole [compound 56]
IC50 (HIV-1 WT RT; Table 7, HIV-1 WT RT): 54.7 µM
%inhibn (1µM) (HIV-1 WT RT; Table 7): 24%
IC50 (HIV-1 WT RT; Table 11, WT RT): 54.7 µM
EC50 (WT virus (NL4-3); [1]): 1.48 µM
EC50 (WT virus (NL4-3); [2]): 1.48 µM
EC50 (NL4-3 (WT); Table 8, isolate N1.43, read-out: EC50): 1.6 µM
EC50 (NL4-3 (WT); [3]): 1.97 µM
EC50 (HIV-1 variant A98G): 4.3 µM
EC50 (HIV-1 variant K101E; Table 8, isolate K101E, read-out: EC50): > 20 µM
EC50 (HIV-1 variant K103N; Table 8, read-out: EC50): > 20 µM
EC50 (HIV-1 variant K103N; [4]): > 100 µM
EC50 (HIV-1 variant L100I; Table 8, isolate 1.1001, read-out: EC50): 2.1 µM
EC50 (HIV-1 variant L100I; [5]): 3.25 µM
EC50 (HIV-1 variant L74V): 1.2 µM
EC50 (HIV-1 variant V106A): > 20 µM
EC50 (HIV-1 variant V108I; Table 8, isolate V1081, read-out: EC50): 5.3 µM
EC50 (HIV-1 variant V179D): > 10 µM
EC50 (HIV-1 variant Y181C; [4]): > 100 µM
EC50 (HIV-1 variant Y188C; Table 8, isolate Y 188C, read-out: EC50): > 10 µM

CC(C)=CCn1c(-c2c(F)cccc2F)nc2c(C)cccc21 [(X= CH3) R = prenyl, 1-(3,3-dimethylallyl)-2-(2,6-difluorophenyl)-4-methylbenzimidazole]
EC50 (NL4-3 (WT); Human immunodeficiency virus 1, NL43, MT4, Table 9, isolate NL4.3): 1.3 µM
EC50 (HIV-1 variant K101E; Human immunodeficiency virus 1, MT4, Table 9, isolate KIOIE): > 20 µM
EC50 (HIV-1 variant K103N; [6]): > 20 µM
EC50 (HIV-1 variant L100I; Human immunodeficiency virus 1, MT4, Table 9, isolate L1001): 0.3 µM
EC50 (HIV-1 variant V108I; Human immunodeficiency virus 1, MT4, Table 9, isolate V1081): > 20 µM
EC50 (HIV-1 variant Y181C; [6]): > 20 µM

Cc1cccc2c1nc(C(C)C)n2Cc1c(F)cccc1F [compound 34, 1-(2,6-difluorobenzyl)-2-isopropyl-4-methylbenzimidazole]
inhibition at 10 µM (HIV-1 WT RT; Table 3, WT RT, 10 µM drug concentration, read-out: %inhibn (10 µM)): 53%
cytotoxicity and anti-viral effect (summary graph) (WT virus (NL4-3); Figures 10-12, result in words): effective therapeutic dose

Fc1cccc(F)c1Cn1c(-c2c(F)cccc2F)nc2c(Br)cccc21 [compound 54, 4-bromo-1-(2,6-difluorobenzyl)-2-(2,6-difluorophenyl)benzimidazole]
inhibition at 1 µM (HIV-1 WT RT; Table 6, average of two experiments done in triplicates, read-out: %Inhibn (1µM)): 78%
IC50 (HIV-1 WT RT; Table 7, HIV-1 WT RT): 1.61 µM
inhibition at 1 µM (HIV-1 WT RT; Table 7, read-out: %inhibn (1µM)): 78%
IC50 (HIV-1 WT RT; Table 11, WT RT): 1.61 µM
EC50 (WT virus (NL4-3); Human immunodeficiency virus 1, NL43, CEM-SS, Table 7, concentration reducing cell killing or virus production by 50%, HIV-1 WT): 0.37 µM
EC50 (WT virus (NL4-3); Human immunodeficiency virus 1, NL43, CEM-SS, Table 11, CEMSS/NL4-3, NRVC = reduction in viral CPE not seen (footnote)): 0.37 µM
EC50 (NL4-3 (WT); Human immunodeficiency virus 1, NL43, MT4, Table 10 (values in µM), isolate NL4-3 (WT)): 0.5 µM
EC50 (HIV-1 variant K101E; Human immunodeficiency virus 1, MT4, Table 10 (values in µM), isolate K101E): > 20 µM
EC50 (HIV-1 variant K103N; [7]): > 20 µM
EC50 (HIV-1 variant L100I; Human immunodeficiency virus 1, MT4, Table 10 (values in µM), isolate L1001): 0.5 µM
EC50 (HIV-1 variant V108I; Human immunodeficiency virus 1, MT4, Table 10 (values in µM), isolate V108l): 4.2 µM
EC50 (HIV-1 variant Y181C; [7]): 10.7 µM
EC50 (HIV-1 variant Y188C; Human immunodeficiency virus 1, MT4, Table 10 (values in µM), isolate Y188C): 3.7 µM

CN(C)c1cccc2c1nc(-c1c(F)cccc1F)n2Cc1c(F)cccc1F [compound 59, 1-(2,6-difluorobenzyl)-2-(2,6-difluorophenyl)-4-N,N dimethylaminobenzimidazole]
IC50 (HIV-1 WT RT; Table 7, HIV-1 WT RT): 40 µM
%inhibn (1µM) (HIV-1 WT RT; Table 7): 77%
IC50 (HIV-1 WT RT; Table 11, WT RT): 40 µM
EC50 (WT virus (NL4-3); [1]): 2.37 µM
EC50 (WT virus (NL4-3); [2]): 2.37 µM
EC50 (NL4-3 (WT); [3]): 2.88 µM
EC50 (HIV-1 variant K103N; [4]): > 100 µM
EC50 (HIV-1 variant L100I; [5]): 31.8 µM
EC50 (HIV-1 variant Y181C; [4]): > 100 µM
